Data as given in BindingDB's records for doi:10.1016/j.bmcl.2010.01.042 (Bristol Myers Squibb, 2010).

Biological target: Insulin-like growth factor 1 receptor (Homo sapiens) (UniProt P08069)
Test: Inhibition of IGFR1

Sequence of Insulin-like growth factor 1 receptor (Homo sapiens) (P08069 whole entry, looked up): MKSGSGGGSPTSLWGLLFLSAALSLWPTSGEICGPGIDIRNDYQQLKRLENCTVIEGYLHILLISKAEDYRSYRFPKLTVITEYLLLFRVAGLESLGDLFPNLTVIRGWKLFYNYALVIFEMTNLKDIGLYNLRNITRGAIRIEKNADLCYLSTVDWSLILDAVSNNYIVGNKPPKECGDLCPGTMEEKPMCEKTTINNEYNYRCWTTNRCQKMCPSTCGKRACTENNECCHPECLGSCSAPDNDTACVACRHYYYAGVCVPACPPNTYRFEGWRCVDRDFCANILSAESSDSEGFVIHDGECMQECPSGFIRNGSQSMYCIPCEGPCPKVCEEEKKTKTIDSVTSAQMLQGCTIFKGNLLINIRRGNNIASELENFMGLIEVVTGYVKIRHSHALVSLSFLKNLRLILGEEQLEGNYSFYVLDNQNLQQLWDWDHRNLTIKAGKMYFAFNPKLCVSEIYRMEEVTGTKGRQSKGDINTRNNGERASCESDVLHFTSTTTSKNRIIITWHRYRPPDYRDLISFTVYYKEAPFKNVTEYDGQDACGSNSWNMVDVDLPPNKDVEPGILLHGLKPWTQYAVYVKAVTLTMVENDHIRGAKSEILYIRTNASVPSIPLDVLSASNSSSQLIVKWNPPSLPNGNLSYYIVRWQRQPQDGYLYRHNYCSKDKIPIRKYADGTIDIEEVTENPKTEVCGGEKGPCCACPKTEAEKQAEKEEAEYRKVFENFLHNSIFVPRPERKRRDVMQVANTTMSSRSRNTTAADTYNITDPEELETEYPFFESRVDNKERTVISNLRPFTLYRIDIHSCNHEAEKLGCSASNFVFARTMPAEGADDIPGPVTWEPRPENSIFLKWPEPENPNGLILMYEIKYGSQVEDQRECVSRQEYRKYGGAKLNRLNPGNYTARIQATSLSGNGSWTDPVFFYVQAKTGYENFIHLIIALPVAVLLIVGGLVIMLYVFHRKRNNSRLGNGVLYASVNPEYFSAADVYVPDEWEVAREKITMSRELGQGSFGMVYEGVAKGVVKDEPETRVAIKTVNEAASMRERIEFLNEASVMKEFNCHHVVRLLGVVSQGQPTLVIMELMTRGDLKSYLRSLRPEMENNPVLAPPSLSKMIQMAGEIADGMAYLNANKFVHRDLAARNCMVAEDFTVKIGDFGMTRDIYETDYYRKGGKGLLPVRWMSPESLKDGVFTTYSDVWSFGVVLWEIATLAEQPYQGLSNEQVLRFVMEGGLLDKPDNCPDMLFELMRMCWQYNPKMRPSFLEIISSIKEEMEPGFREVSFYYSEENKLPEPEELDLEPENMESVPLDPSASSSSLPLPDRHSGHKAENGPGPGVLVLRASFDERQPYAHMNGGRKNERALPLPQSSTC

## O=C(Nc1ccc(F)cc1F)c1cccnc1Nc1ccc(Oc2ccnc3[nH]ccc23)c(F)c1 [2-(4-(1H-pyrrolo[2,3-b]pyridin-4-yloxy)-3-fluorophenylamino)-N-(2,4-difluorophenyl)nicotinamide]
  IC50: > 50 µM
